Laboratory results taken from patent publication US20250282795A1, “EGFR Inhibitors in cancer treatment” (Celyn Therapeutics, Inc., priority 2022, published 2025).

What was measured:
Assay type in all cases: cell-based
Ba/F3 (L858R + T790M) = assay: Cellular growth inhibition assay (CellTiter-Glo), Ba/F3 (L858R+T790M); details: Mus musculus, BaF3, 72 h; 3 days of incubation
Description: (§1) Example E. Cellular Growth Inhibition Assay
(§2) Ba/F3(Empty vector) (Signosis), Ba/F3(Wild type) (Signosis), Ba/F3(L^858R+T790M) (Signosis), Ba/F3(A767_dupASV) (Signosis), Ba/F3(D770_N771insSVD) (Signosis), Ba/F3(H773_V774insNPH) (Signosis) were seeded at a density of 4000 cells per well in a CellBIND® 384-well Flat Clear Bottom Black Polystyrene Microplates (Coming, USA, Cat #3770) in 45 μl total volume of RPMI (PanEco, Cat #C330, Russia) with […] (HyClone, Cat #SV30160.03) and with 10 ng/ml rmIL-3 (RD systems, USA, Cat #403-ML-025) (for BaBF3(Empty vector)) and with 10 ng/ml rhEGF (ThermoFisher, USA, Cat #PHG0311L) (for BaCF3(Wild type)). 500× compounds solutions in DMSO (Sigma Cat #D2650) were prepared into Cmpnds plate (DiamondWell Plate, Axigen, Cat #P-384-120SQ-C—S) and DMSO only control was included. 1.l of 500× compounds (Cmpnds plate) was added to 49 µl of culture medium into Dilution plate (Diamond Well Plate, Axigen, Cat #P-384-120SQ-C—S), mixed and then 5 μl of 10× compounds solutions were transferred to cells followed by centrifugation at 100 g for 1 min. Final DMSO concentration was 0.2% o. After 3 days of incubation 10.l of CellTiter-Glo (Promega, CAT #G7572) were added to the cells, plate was centrifuged at 100 g for 1 min and luminescence signal was measured using Microplate Reader (CLARIOStar).

Ba/F3 (A767_dupASV) = assay: Cellular growth inhibition assay (CellTiter-Glo), Ba/F3 (A767_dupASV); details: Mus musculus, BaF3, 72 h; 3 days of incubation; read-out: Ba/F3 (A767_dup ASV) CC50
Description: as §1, §2

Ba/F3 (H773_V774insSVD) = assay: Cellular growth inhibition assay (CellTiter-Glo), Ba/F3 (H773_V774insSVD); details: Mus musculus, BaF3, 72 h; 3 days of incubation; read-out: Ba/F3 (H773_V774 insSVD) CC50
[1] = Cellular growth inhibition assay (CellTiter-Glo), Ba/F3 (Empty vector); details: mouse, Ba/F3 cells with empty vector; Ba/F3 (Empty vector) with 10 ng/ml rmIL-3, 3 days of incubation
Description: as §1, §2

Ba/F3 (D770_N771insSVD) = assay: Cellular growth inhibition assay (CellTiter-Glo), Ba/F3 (D770_N771insSVD); details: Mus musculus, BaF3, 72 h; 3 days of incubation; read-out: Ba/F3 (D770_N771 insSVD) CC50
Description: as §1, §2

| SMILES | CC50 (Ba/F3 (L858R + T790M)) [nM] | CC50 (Ba/F3 (A767_dupASV)) [nM] | CC50 (Ba/F3 (H773_V774insSVD)) [nM] | CC50 at 3 days [1] [nM] | CC50 (Ba/F3 (D770_N771insSVD)) [nM] |
| --- | --- | --- | --- | --- | --- |
| COc1c(F)cccc1Nc1c2[nH]c3c1C(=O)NCC3CC(=O)N1CC(CCOc3cnccc3-2)C1 (stereo not drawn) [Compound 139, 19-(3-fluoro-2-methoxyanilino)-6,7,8,9,12,12a,13,14-octahydro-11H-8,10-methano-16,18-(metheno)dipyrido[3,4-b: 4′,3′-f][1,5,10]oxadiazacyclotetradecine-11,15(17H)-dione] | > 10000 | 100 to 1000 | 1000 to 10000 | > 10000 | 1000 to 10000 |
| COc1c(F)cccc1Nc1c2[nH]c3c1C(=O)NCC3CCCCN1CCC(CC1)COc1cnccc1-2 (stereo not drawn) [Compound 136, 21-[(3-Fluoro-2-methoxyphenyl)amino]-6,7,8,9,12,13,14,14a,15,16-decahydro-11H-7,10-ethano-18,20-methenodipyrido[3,4-b:4′,3′-f][1,5,12]oxadiazacyclohexadecin-17(19H)-one] | > 10000 | 1000 to 10000 | > 10000 | > 10000 | > 10000 |
| COc1c(F)cccc1Nc1c2[nH]c3c1C(=O)NCC3CCCN1CCCC(COc3cnccc3-2)C1 (stereo not drawn) [Compound 12, 21-[(3-Fluoro-2-methoxyphenyl)amino]-7,8,9,10,12,13,14,14a,15,16-decahydro-6H-7,11-methano-18,20-methenodipyrido[3,4-b:4′,3′-f][1,5,11]oxadiazacyclohexadecin-17(19H)-one] | > 10000 | 100 to 1000 | > 10000 | > 10000 | 1000 to 10000 |
| COc1c(F)cccc1Nc1c2[nH]c3c1C(=O)NC(CCCCOCCOc1cnccc1-2)C3 (stereo not drawn) [Compound 133, 20-(3-fluoro-2-methoxyanilino)-2,3,5,6,7,8,9,10-octahydro-9,13-methano-12,15-(metheno)pyrido[3,4-e][1,4,8,12]dioxadiazacycloheptadecin-11(14H)-one] | > 10000 | 1000 to 10000 | > 10000 | > 10000 | > 10000 |
| COc1c(F)cccc1Nc1c2[nH]c3c1C(=O)NCC3CCCCN(C(C)C)CCOc1cnccc1-2 (stereo not drawn) [Compound 159, 19-(3-fluoro-2-methoxyanilino)-8-(propan-2-yl)-6,7,8,9,10,11,12,12a,13,14-decahydro-16,18-(metheno)dipyrido[3,4-i: 4′,3′-m][1,4,11]oxadiazacyclotetradecin-15(17H)-one] | > 10000 | 100 to 1000 | 1000 to 10000 | > 10000 | 1000 to 10000 |
| COc1c(F)cccc1Nc1c2[nH]c3c1C(=O)NCC3CCCN1CCCC(C1)Oc1cnccc1-2 (stereo not drawn) [Compound 166, 20-(3-fluoro-2-methoxyanilino)-6,7,8,9,11,12,13,13a,14,15-decahydro-6,10-methano-17,19-(metheno)dipyrido[3,4-b: 4′,3′-f][1,5,11]oxadiazacyclopentadecin-16(18H)-one] | 1000 to 10000 | 1 to 10 | 100 to 1000 | > 10000 | 10 to 100 |
| COc1c(F)cccc1Nc1c2[nH]c3c1C(=O)NCC3CCCN1CCC(COc3cnccc3-2)C1 (stereo not drawn) [Compound 161, 20-(3-fluoro-2-methoxyanilino)-6,7,8,9,11,12,13,13a,14,15-decahydro-7,10-methano-17,19-(metheno)dipyrido[3,4-b: 4′,3′-f][1,5,11]oxadiazacyclopentadecin-16(18H)-one] | 1000 to 10000 | 10 to 100 | 1000 to 10000 | > 10000 | 100 to 1000 |
| COc1c(F)cccc1Nc1c2[nH]c3c1C(=O)NCC3CC=CCN1CCC(CC1)COc1cnccc1-2 (stereo not drawn) [Compound 135, 21-(3-fluoro-2-methoxyanilino)-6,7,8,9,14,14a,15,16-octahydro-11H-7,10-ethano-18,20-(metheno)dipyrido[3,4-b: 4′,3′-f][1,5,12]oxadiazacyclohexadecin-17(19H)-one] | > 10000 | > 10000 | > 10000 | > 10000 | > 10000 |
| COc1c(F)cccc1Nc1c2[nH]c3c1C(=O)NC[C@@H]3CCCN1CCC[C@@H]1COc1cnccc1-2 [Compound 167, (12aR)-20-[(3-fluoro-2-methoxyphenyl)amino]-1,2,12a,13,14,15,17,18,19,19a-decahydro-12H-4,6-methenodipyrido[3,4-h:4′,3′-l]pyrrolo[2,1-c][1,4,10]oxadiazacyclotridecin-3(5H)-one] | 1000 to 10000 | 10 to 100 | 100 to 1000 | > 10000 | 100 to 1000 |
| COc1c(F)cccc1Nc1c2[nH]c3c1C(=O)NC[C@@H]3CCCN1CC[C@@H](COc3cnccc3-2)C1 (stereo in doubt) [Compound 162, 20-[(3-Fluoro-2-methoxyphenyl)amino]-6,7,8,9,11,12,13,13a,14,15-decahydro-7,10-methano-17,19-methenodipyrido[3,4-b:4′,3′-f][1,5,11]oxadiazacyclopentadecin-16(18H)-one] | > 10000 | > 10000 | > 10000 | > 10000 | > 10000 |
| COc1c(F)cccc1Nc1c2[nH]c3c1C(=O)NCC3CCCCN1CC(COc3cnccc3-2)C1 (stereo not drawn) [Compound 123, 20-(3-fluoro-2-methoxyanilino)-7,8,11,12,13,13a,14,15-octahydro-6H,10H-7,9-methano-17,19-(metheno)dipyrido[3,4-b: 4′,3′-f][1,5,12]oxadiazacyclopentadecin-16(18H)-one] | 100 to 1000 | 1 to 10 | 100 to 1000 | 1000 to 10000 | 10 to 100 |
| COc1c(F)cccc1Nc1c2[nH]c3c1C(=O)NCC3CCCOCCCCCCN1CCC(CC1)Oc1cnccc1-2 (stereo not drawn) [Compound 137, 28-(3-fluoro-2-methoxyanilino)-1,2,13,14,16,17,18,19,20,21,23,24,25,25a-tetradecahydro-12H-12,15-ethano-4,6-(metheno)dipyrido[3,4-b: 4′,3′-f][1,11,5,18]dioxadiazacyclohenicosin-3(5H)-one] | 1000 to 10000 | 100 to 1000 | 1000 to 10000 | > 10000 | 1000 to 10000 |
| COc1c(F)cccc1Nc1c2[nH]c3c1C(=O)NCC3CC(=O)N[C@H](C)C(=O)NCCCOc1cnccc1-2 (stereo partly drawn) [Compound 141, (11R)-21-(3-fluoro-2-methoxyanilino)-11-methyl-6,7,8,9,11,12,14,14a,15,16-decahydro-18,20-(metheno)dipyrido[3,4-k: 4′,3′-o][1,5,8,13]oxatriazacyclohexadecine-10,13,17(19H)-trione] | > 10000 | 100 to 1000 | > 10000 | > 10000 | 1000 to 10000 |
| COc1c(F)cccc1Nc1c2[nH]c3c1C(=O)NCC3CCCN1CC(COc3cnccc3-2)C1 (stereo not drawn) [Compound 160, 19-[(3-Fluoro-2-methoxyphenyl)amino]-7,8,10,11,12,12a,13,14-octahydro-6H-7,9-methano-16,18-methenodipyrido[3,4-b:4′,3′-f][1,5,11]oxadiazacyclotetradecin-15(17H)-one] | > 10000 | 100 to 1000 | 1000 to 10000 | > 10000 | 1000 to 10000 |
| COc1c(F)cccc1Nc1c2[nH]c3c1C(=O)NCC3CCCCCCNCCOc1cnccc1-2 (stereo not drawn) [Compound 164, 21-(3-fluoro-2-methoxyanilino)-6,7,8,9,10,11,12,13,14,14a,15,16-dodecahydro-18,20-(metheno)dipyrido[3,4-k: 4′,3′-o][1,4,13]oxadiazacyclohexadecin-17(19H)-one] | 1000 to 10000 | 10 to 100 | 100 to 1000 | > 10000 | 10 to 100 |
